# Test system: retinitis pigmentosa
# Assay: Subconjunctival injection of tazarotene microsphere suspension into a patient suffering from retinitis pigmentosa
# Type: in vivo
# Conditions: tazarotene 1 mg in poly(lactide-co-glycolide) microsphere suspension, for the duration of treatment
# Description: A dose of tazarotene (1 mg) contained in the poly(lactide-co-glycolide) microsphere suspension of Example containing 1 is injected subconjunctivally into a patient suffering from retinitis pigmentosa.
compound,measurement,value
CCOC(=O)c1ccc(C#Cc2ccc3c(c2)C(C)(C)CCS3)nc1 [tazarotene],vision,Maintenance of vision or a slowing of the progression of vision loss

# — US20050003007A1, “Method of sterilization of polymeric microparticles” (priority 2003, published 2005)
